Laboratory results: US6281248A, “Composition for treating asthma” (priority 2000, dated 2001)
Each block holds one compound with its values, some of them ahead of it.

Tests used:
[1] = Solubility of the present invention; assay type: physicochemical
[2] = In vitro protein binding with radiolabeled 3H-sertraline; assay type: in vitro ADME; conditions: serum, 20 to 500 ng/mL, read-out: binding to serum proteins (converted)
[3] = Electrocardiograms of patients in double-blind trials; assay type: in vivo, human; conditions: 774 patients
[4] = test system: beta-adrenergic blocking ability of atenolol; assay: Interaction with atenolol in healthy male subjects; assay type: in vivo, human; conditions: 100 mg
bacteria = assay: Bacterial mutation assay; assay type: cell-based; conditions: with or without metabolic activation
mouse lymphoma = assay: Mouse lymphoma mutation assay; assay type: cell-based; conditions: with or without metabolic activation
[5] = single dose, with vs without food
[6] = not given; remark: listed apart in the source
[7] = not given; remark: listed apart in the source
clinical [8] = conditions: human, plasma
clinical [9] = conditions: human, in vivo
clinical [10] = conditions: human, in vivo, mean half-life
clinical [11] = conditions: human, in vivo; remark: listed apart in the source
Metabolism = conditions: in vivo
[12] = test system: dopamine neuronal reuptake; assay: In vitro neuronal dopamine reuptake; conditions: animals
[13] = Plasma clearance in elderly patients
[14] = In vitro biochemical testing of N-demethylsertraline
[15] = In vivo pharmacological testing of N-demethylsertraline
[16] = Desmethylsertraline pharmacokinetics, day 1 to day 14; assay type: in vivo
[17] = test system: plasma protein binding of warfarin; assay: Plasma protein binding of warfarin; assay type: in vitro ADME; conditions: sertraline up to 300 ng/mL, desmethylsertraline up to 200 ng/mL
[18] = test system: plasma protein binding of propranolol; assay: Plasma protein binding of propranolol; assay type: in vitro ADME; conditions: sertraline up to 300 ng/mL, desmethylsertraline up to 200 ng/mL

Structure (SMILES): CN[C@H]1CC[C@@H](c2ccc(Cl)c(Cl)c2)c2ccccc21.Cl [sertraline, (1S-cis)-4-(3,4-dichlorophenyl)-1,2,3,4-tetrahydro-N-methyl-1-naphthalenamine hydrochloride]
solubility in ethanol ([1]; ethanol): sparing soluble | solubility in isopropyl alcohol ([1]; isopropyl alcohol): slightly soluble | solubility in water ([1]; water): slightly soluble | fraction unbound [2]: 0.02 | ECG abnormalities [3]: not associated with the development of significant ECG abnormalities | effect on the beta-adrenergic blocking ability of atenolol [4]: no effect | genotoxic effects, bacterial mutation assay (bacteria): no genotoxic effects | genotoxic effects, mouse lymphoma mutation assay (mouse lymphoma): no genotoxic effects | time to steady-state plasma levels (once-daily dosing, based on half-life): approximately one | Cmax dose proportionality (single dose, 50 to 200 mg): proportional to dose | AUC with food [5]: slightly increased | Cmax increase with food [5]: 25% | unchanged sertraline in the urine [6]: not detectable | mean half-life ([7]; human, in vivo): 27.8 h | gender associated differences ([7]; pediatric patients, males and females): No gender associated differences were observed | half-life (clinical [8]): ~26 h | dose excreted at 216 h (clinical [9]): 12 to 14% | half-life (clinical [10]): 26.2 h | half-life (clinical [11]): 27.2 h | first pass metabolism (Metabolism): extensive first pass metabolism | metabolic pathway (Metabolism): oxidative deamination and subsequent reduction, hydroxylation, and glucuronide conjugation | principal initial pathway of metabolism (Metabolism): N-demethylation | effects on dopamine neuronal reuptake [12]: only very weak effects | plasma clearance lower than in younger individuals ([13]; elderly, 100 mg/day for 14 days, vs 25 to 32 y.o.): approximately 40%

increase in AUC (0-24 hour) between day 1 and day 14 ([16]; day 1 to day 14): 5-9 fold | increase in Cmax between day 1 and day 14 ([16]; day 1 to day 14): 5-9 fold | increase in Cmin between day 1 and day 14 ([16]; day 1 to day 14): 5-9 fold | time and dose dependence of AUC (0-24 hour), Cmax, and Cmin ([16]; in vivo): time-related, dose dependent increases | alteration of plasma protein binding of warfarin [17]: did not alter | alteration of plasma protein binding of propranolol [18]: did not alter | clearance in older males ([13]; older males): decreased clearance
Structure (SMILES): N[C@H]1CC[C@@H](c2ccc(Cl)c(Cl)c2)c2ccccc21 [N-demethylsertraline]
activity in in vitro biochemical testing relative to sertraline [14]: substantially less active than sertraline | activity in in vivo pharmacological testing relative to sertraline [15]: substantially less active than sertraline | metabolic pathway (Metabolism): oxidative deamination and subsequent reduction, hydroxylation, and glucuronide conjugation
